Assay results taken from the NIST ThermoML archive (doi:10.1016/j.jct.2017.03.032).

Experiment: wn = mass fraction of the nth substance listed
Conditions: Gas, Burnett expansion method

F/C=C/C(F)(F)F [trans-1,3,3,3-tetrafluoropropene] + CC(C)C
Conditions | mass density [kg/m3]
280.17 K, 167.4 kPa, w1 = 0.7 | 6.7132
280.17 K, 218.3 kPa, w1 = 0.7 | 8.9087
280.18 K, 165.3 kPa, w1 = 0.65 | 6.4038
280.18 K, 215.5 kPa, w1 = 0.65 | 8.4982
280.18 K, 229.9 kPa, w1 = 0.8 | 10.1496
285.05 K, 159.8 kPa, w1 = 0.8 | 6.7596
285.06 K, 208.9 kPa, w1 = 0.8 | 8.9702
285.06 K, 266.4 kPa, w1 = 0.75 | 11.209
285.06 K, 272 kPa, w1 = 0.8 | 11.904
285.06 K, 290 kPa, w1 = 0.9 | 13.8805
285.08 K, 149.5 kPa, w1 = 0.65 | 5.6292
285.08 K, 195.5 kPa, w1 = 0.65 | 7.4702
285.08 K, 254.6 kPa, w1 = 0.65 | 9.9134
285.09 K, 151.9 kPa, w1 = 0.7 | 5.9363
285.09 K, 198.7 kPa, w1 = 0.7 | 7.8779
285.09 K, 258.7 kPa, w1 = 0.7 | 10.4543
290.16 K, 140.3 kPa, w1 = 0.75 | 5.5569
290.16 K, 183.7 kPa, w1 = 0.75 | 7.3743
290.16 K, 234.4 kPa, w1 = 0.7 | 9.1876
290.16 K, 239.9 kPa, w1 = 0.75 | 9.7861
290.17 K, 153.8 kPa, w1 = 0.9 | 6.9178
290.17 K, 201.4 kPa, w1 = 0.9 | 9.1804
290.17 K, 262.6 kPa, w1 = 0.9 | 12.1828
290.17 K, 304.8 kPa, w1 = 0.7 | 12.1924
290.17 K, 311.8 kPa, w1 = 0.75 | 12.9866
290.17 K, 340.7 kPa, w1 = 0.9 | 16.1673
290.18 K, 176 kPa, w1 = 0.65 | 6.5292
290.18 K, 179.5 kPa, w1 = 0.7 | 6.9229
290.18 K, 229.9 kPa, w1 = 0.65 | 8.6646
290.18 K, 299.2 kPa, w1 = 0.65 | 11.4985
290.19 K, 148.1 kPa, w1 = 0.85 | 6.3743
290.19 K, 193.9 kPa, w1 = 0.85 | 8.459
290.19 K, 252.9 kPa, w1 = 0.85 | 11.2256
290.19 K, 328.4 kPa, w1 = 0.85 | 14.8972
290.2 K, 188.8 kPa, w1 = 0.8 | 7.8842
290.2 K, 246.5 kPa, w1 = 0.8 | 10.4628
290.2 K, 320.1 kPa, w1 = 0.8 | 13.8847
295.18 K, 138.3 kPa, w1 = 0.9 | 6.0742
295.18 K, 181.5 kPa, w1 = 0.9 | 8.0608
295.18 K, 198.3 kPa, w1 = 0.65 | 7.2638
295.18 K, 258.7 kPa, w1 = 0.65 | 9.6394
295.18 K, 308.8 kPa, w1 = 0.9 | 14.1958
295.18 K, 336.3 kPa, w1 = 0.65 | 12.7921
295.18 K, 399.6 kPa, w1 = 0.9 | 18.8389
295.19 K, 151.4 kPa, w1 = 0.65 | 5.4735
295.19 K, 237.2 kPa, w1 = 0.9 | 10.6968
295.2 K, 160.8 kPa, w1 = 0.7 | 6.0421
295.2 K, 173.7 kPa, w1 = 0.85 | 7.366
295.2 K, 210.4 kPa, w1 = 0.7 | 8.0182
295.2 K, 227.4 kPa, w1 = 0.85 | 9.7751
295.2 K, 274.6 kPa, w1 = 0.7 | 10.6407
295.2 K, 296.4 kPa, w1 = 0.85 | 12.9722
295.2 K, 356.2 kPa, w1 = 0.7 | 14.1209
295.2 K, 384.1 kPa, w1 = 0.85 | 17.2147
295.21 K, 165.5 kPa, w1 = 0.75 | 6.4713
295.21 K, 216.7 kPa, w1 = 0.75 | 8.5879
295.21 K, 282.6 kPa, w1 = 0.75 | 11.3966
295.21 K, 366.4 kPa, w1 = 0.75 | 15.1241
295.22 K, 169.2 kPa, w1 = 0.8 | 6.8878
295.22 K, 221.5 kPa, w1 = 0.8 | 9.1405
295.22 K, 288.6 kPa, w1 = 0.8 | 12.13
295.22 K, 374 kPa, w1 = 0.8 | 16.0973
300.14 K, 198.5 kPa, w1 = 0.8 | 7.9893
300.14 K, 259.5 kPa, w1 = 0.8 | 10.6023
300.14 K, 337.5 kPa, w1 = 0.8 | 14.0697
300.16 K, 151.4 kPa, w1 = 0.8 | 6.02
300.16 K, 156.6 kPa, w1 = 0.85 | 6.5188
300.16 K, 205.4 kPa, w1 = 0.85 | 8.6508
300.16 K, 268.4 kPa, w1 = 0.85 | 11.4801
300.16 K, 348.9 kPa, w1 = 0.85 | 15.2347
300.16 K, 448.5 kPa, w1 = 0.85 | 20.2174
300.17 K, 466.4 kPa, w1 = 0.9 | 21.9125
300.18 K, 162.8 kPa, w1 = 0.9 | 7.0652
300.18 K, 213.3 kPa, w1 = 0.9 | 9.3759
300.18 K, 278.5 kPa, w1 = 0.9 | 12.4424
300.18 K, 361.8 kPa, w1 = 0.9 | 16.5116
300.19 K, 141.1 kPa, w1 = 0.65 | 4.9939
300.19 K, 147.4 kPa, w1 = 0.75 | 5.6247
300.19 K, 185.2 kPa, w1 = 0.65 | 6.6273
300.19 K, 193.2 kPa, w1 = 0.75 | 7.4643
300.19 K, 242.2 kPa, w1 = 0.65 | 8.7948
300.19 K, 252.7 kPa, w1 = 0.75 | 9.9055
300.19 K, 315.5 kPa, w1 = 0.65 | 11.6712
300.19 K, 328.9 kPa, w1 = 0.75 | 13.1452
300.19 K, 408.2 kPa, w1 = 0.65 | 15.4884
300.19 K, 425.4 kPa, w1 = 0.75 | 17.4445
300.21 K, 143.9 kPa, w1 = 0.7 | 5.2837
300.21 K, 188.7 kPa, w1 = 0.7 | 7.0118
300.21 K, 246.8 kPa, w1 = 0.7 | 9.3051
300.21 K, 321.3 kPa, w1 = 0.7 | 12.3484
300.21 K, 415.8 kPa, w1 = 0.7 | 16.3872
305.17 K, 185.5 kPa, w1 = 0.8 | 7.2959
305.17 K, 243 kPa, w1 = 0.8 | 9.6822
305.17 K, 316.9 kPa, w1 = 0.8 | 12.8488
305.17 K, 410.9 kPa, w1 = 0.8 | 17.0511
305.18 K, 145.2 kPa, w1 = 0.85 | 5.912
305.18 K, 169.9 kPa, w1 = 0.7 | 6.1677
305.18 K, 189.6 kPa, w1 = 0.85 | 7.8456
305.18 K, 249.6 kPa, w1 = 0.85 | 10.4115
305.18 K, 290.8 kPa, w1 = 0.7 | 10.8618
305.18 K, 325.5 kPa, w1 = 0.85 | 13.8167
305.18 K, 377.9 kPa, w1 = 0.7 | 14.4143
305.18 K, 420.8 kPa, w1 = 0.85 | 18.3356
305.18 K, 536.7 kPa, w1 = 0.85 | 24.3325
305.19 K, 181.1 kPa, w1 = 0.75 | 6.8373
305.19 K, 222.7 kPa, w1 = 0.7 | 8.1848
305.19 K, 237.2 kPa, w1 = 0.75 | 9.0735
305.19 K, 401.5 kPa, w1 = 0.75 | 15.9791
305.19 K, 487 kPa, w1 = 0.7 | 19.1285
305.2 K, 162.4 kPa, w1 = 0.65 | 5.6789
305.2 K, 212.9 kPa, w1 = 0.65 | 7.5363
305.2 K, 278.3 kPa, w1 = 0.65 | 10.001
305.2 K, 309.5 kPa, w1 = 0.75 | 12.0406
305.2 K, 361.8 kPa, w1 = 0.65 | 13.2721
305.2 K, 465.9 kPa, w1 = 0.65 | 17.6129
305.21 K, 150 kPa, w1 = 0.9 | 6.375
305.21 K, 196.9 kPa, w1 = 0.9 | 8.4599
305.21 K, 257.6 kPa, w1 = 0.9 | 11.2269
305.21 K, 335.6 kPa, w1 = 0.9 | 14.8987
305.21 K, 434.3 kPa, w1 = 0.9 | 19.7715
305.21 K, 557 kPa, w1 = 0.9 | 26.2379
310.09 K, 153.4 kPa, w1 = 0.7 | 5.4721
310.09 K, 569.4 kPa, w1 = 0.7 | 22.5217
310.1 K, 157.4 kPa, w1 = 0.8 | 6.0902
310.1 K, 201.9 kPa, w1 = 0.7 | 7.2614
310.1 K, 207.9 kPa, w1 = 0.8 | 8.082
310.1 K, 271.8 kPa, w1 = 0.75 | 10.3201
310.1 K, 272 kPa, w1 = 0.8 | 10.7254
310.1 K, 344.7 kPa, w1 = 0.7 | 12.7882
310.1 K, 354.2 kPa, w1 = 0.75 | 13.6955
310.1 K, 354.6 kPa, w1 = 0.8 | 14.233
310.1 K, 458.2 kPa, w1 = 0.8 | 18.8881
310.1 K, 459.6 kPa, w1 = 0.75 | 18.1746
310.1 K, 583 kPa, w1 = 0.75 | 24.1187
310.1 K, 583.3 kPa, w1 = 0.8 | 25.0653
310.11 K, 158.1 kPa, w1 = 0.75 | 5.86
310.11 K, 207.6 kPa, w1 = 0.75 | 7.7765
310.11 K, 446.6 kPa, w1 = 0.7 | 16.9702
310.12 K, 264.5 kPa, w1 = 0.7 | 9.6359
310.12 K, 493.5 kPa, w1 = 0.9 | 22.3926
310.13 K, 166 kPa, w1 = 0.85 | 6.6824
310.13 K, 172 kPa, w1 = 0.9 | 7.22
310.13 K, 225.6 kPa, w1 = 0.9 | 9.5815
310.13 K, 294.9 kPa, w1 = 0.9 | 12.7151
310.13 K, 337.1 kPa, w1 = 0.65 | 12.0235
310.13 K, 372.9 kPa, w1 = 0.85 | 15.6171
310.13 K, 383.7 kPa, w1 = 0.9 | 16.8736
310.13 K, 436.3 kPa, w1 = 0.65 | 15.9559
310.13 K, 556 kPa, w1 = 0.65 | 21.1744
310.13 K, 607.5 kPa, w1 = 0.85 | 27.5031
310.14 K, 196.8 kPa, w1 = 0.65 | 6.8271
310.14 K, 216.8 kPa, w1 = 0.85 | 8.8678
310.14 K, 258.2 kPa, w1 = 0.65 | 9.0598
310.14 K, 285 kPa, w1 = 0.85 | 11.7678
310.14 K, 479.8 kPa, w1 = 0.85 | 20.7246
310.15 K, 149.8 kPa, w1 = 0.65 | 5.1443
